In patent publication US20080096967A1, “Formulations for Injection of Catecholic Butanes, Including Ndga Compounds, Into Animals” (priority 2005, published 2008):

Assay: M4N solubility in water miscible organic solvents up to 48 hours (RP-HPLC)
Type: physicochemical
Experimental: To prepare M4N samples, 200 μL of 100 mg/mL M4N dissolved in acetone were placed in 1.5 mL polypropylene microtubes. The solvent was allowed to evaporate at room temperature for 48 hours until the samples were completely dry.
The water miscible organic solvent formulations were prepared in 15 mL polypropylene centrifuge tubes. 10 mL of each formulation was prepared. Each solvent was added on the basis of weight using its respective density at 25° C. Following brief mixing, each formulation was filtered through a 0.45 μm surfactant free cellulose acetate (“SFCA”) filter into a fresh 15 mL tube. Formulations were kept at room temperature until ready for use.
At each time point, the samples were centrifuged for 2 minutes at 13,000 rpm to pellet any solid M4N. As noted in Table 25, over half of the formulation conditions examined were able to solubilize M4N to a concentration of greater than 10 mg/Ml.

## COc1ccc(C[C@@H](C)[C@@H](C)Cc2ccc(OC)c(OC)c2)cc1OC [Formulation M4N, meso-1,4-bis(3,4-dimethoxyphenyl)-2,3-dimethylbutane]
14% EtOH, 30% PG, 40% Crem, 10% T80, 6% DMA, 2 hrs at room temperature
  M4N solubility: 9030 µg/mL
14% EtOH, 30% PG, 40% Crem, 10% T80, 6% DMA, 24 hrs at room temperature
  M4N solubility: 12080 µg/mL
14% EtOH, 30% PG, 40% Crem, 10% T80, 6% DMA, 48 hrs at room temperature
  M4N solubility: 12280 µg/mL
14% EtOH, 30% PG, 40% Glyc, 10% T80, 6% DMA, 2 hrs at room temperature
  M4N solubility: 850 µg/mL
14% EtOH, 30% PG, 40% Glyc, 10% T80, 6% DMA, 24 hrs at room temperature
  M4N solubility: 1240 µg/mL
14% EtOH, 30% PG, 40% Glyc, 10% T80, 6% DMA, 48 hrs at room temperature
  M4N solubility: 1480 µg/mL
14% EtOH, 30% PG, 40% PEG300, 10% T80, 6% DMA, 2 hrs at room temperature
  M4N solubility: 9400 µg/mL
14% EtOH, 30% PG, 40% PEG300, 10% T80, 6% DMA, 24 hrs at room temperature
  M4N solubility: 10550 µg/mL
14% EtOH, 30% PG, 40% PEG300, 10% T80, 6% DMA, 48 hrs at room temperature
  M4N solubility: 11300 µg/mL
18% EtOH, 30% PG, 40% Crem, 10% T80, 2% Benz, 2 hrs at room temperature
  M4N solubility: 8640 µg/mL
18% EtOH, 30% PG, 40% Crem, 10% T80, 2% Benz, 24 hrs at room temperature
  M4N solubility: 11780 µg/mL
18% EtOH, 30% PG, 40% Crem, 10% T80, 2% Benz, 48 hrs at room temperature
  M4N solubility: 11860 µg/mL
18% EtOH, 30% PG, 40% Glyc, 10% T80, 2% Benz, 2 hrs at room temperature
  M4N solubility: 580 µg/mL
18% EtOH, 30% PG, 40% Glyc, 10% T80, 2% Benz, 24 hrs at room temperature
  M4N solubility: 1010 µg/mL
18% EtOH, 30% PG, 40% Glyc, 10% T80, 2% Benz, 48 hrs at room temperature
  M4N solubility: 1150 µg/mL
18% EtOH, 30% PG, 40% PEG300, 10% T80, 2% Benz, 2 hrs at room temperature
  M4N solubility: 7840 µg/mL
18% EtOH, 30% PG, 40% PEG300, 10% T80, 2% Benz, 24 hrs at room temperature
  M4N solubility: 9790 µg/mL
18% EtOH, 30% PG, 40% PEG300, 10% T80, 2% Benz, 48 hrs at room temperature
  M4N solubility: 10160 µg/mL
24% EtOH, 30% PG, 30% Crem, 10% T80, 6% DMA, 2 hrs at room temperature
  M4N solubility: 10420 µg/mL
24% EtOH, 30% PG, 30% Crem, 10% T80, 6% DMA, 24 hrs at room temperature
  M4N solubility: 11250 µg/mL
24% EtOH, 30% PG, 30% Crem, 10% T80, 6% DMA, 48 hrs at room temperature
  M4N solubility: 12480 µg/mL
24% EtOH, 30% PG, 30% Glyc, 10% T80, 6% DMA, 2 hrs at room temperature
  M4N solubility: 1630 µg/mL
24% EtOH, 30% PG, 30% Glyc, 10% T80, 6% DMA, 24 hrs at room temperature
  M4N solubility: 2260 µg/mL
24% EtOH, 30% PG, 30% Glyc, 10% T80, 6% DMA, 48 hrs at room temperature
  M4N solubility: 2520 µg/mL
24% EtOH, 30% PG, 30% PEG300, 10% T80, 6% DMA, 2 hrs at room temperature
  M4N solubility: 9910 µg/mL
24% EtOH, 30% PG, 30% PEG300, 10% T80, 6% DMA, 24 hrs at room temperature
  M4N solubility: 10800 µg/mL
28% EtOH, 30% PG, 30% Crem, 10% T80, 2% Benz, 2 hrs at room temperature
  M4N solubility: 8980 µg/mL
28% EtOH, 30% PG, 30% Crem, 10% T80, 2% Benz, 24 hrs at room temperature
  M4N solubility: 11350 µg/mL
28% EtOH, 30% PG, 30% Crem, 10% T80, 2% Benz, 48 hrs at room temperature
  M4N solubility: 11280 µg/mL
28% EtOH, 30% PG, 30% Glyc, 10% T80, 2% Benz, 2 hrs at room temperature
  M4N solubility: 1860 µg/mL
28% EtOH, 30% PG, 30% Glyc, 10% T80, 2% Benz, 24 hrs at room temperature
  M4N solubility: 2220 µg/mL
28% EtOH, 30% PG, 30% Glyc, 10% T80, 2% Benz, 48 hrs at room temperature
  M4N solubility: 2530 µg/mL
28% EtOH, 30% PG, 30% PEG300, 10% T80, 2% Benz, 2 hrs at room temperature
  M4N solubility: 8870 µg/mL
28% EtOH, 30% PG, 30% PEG300, 10% T80, 2% Benz, 24 hrs at room temperature
  M4N solubility: 10190 µg/mL
28% EtOH, 30% PG, 30% PEG300, 10% T80, 2% Benz, 48 hrs at room temperature
  M4N solubility: 10270 µg/mL
44% EtOH, 50% Crem, 6% DMA, 2 hrs at room temperature
  M4N solubility: 14850 µg/mL
44% EtOH, 50% Crem, 6% DMA, 24 hrs at room temperature
  M4N solubility: 20420 µg/mL
44% EtOH, 50% Crem, 6% DMA, 48 hrs at room temperature
  M4N solubility: 21080 µg/mL
44% EtOH, 50% Glycerol, 6% DMA, 2 hrs at room temperature
  M4N solubility: 1430 µg/mL
44% EtOH, 50% Glycerol, 6% DMA, 24 hrs at room temperature
  M4N solubility: 1900 µg/mL
44% EtOH, 50% Glycerol, 6% DMA, 48 hrs at room temperature
  M4N solubility: 2010 µg/mL
44% EtOH, 50% PEG300, 6% DMA, 2 hrs at room temperature
  M4N solubility: 15120 µg/mL
44% EtOH, 50% PEG300, 6% DMA, 24 hrs at room temperature
  M4N solubility: 18610 µg/mL
44% EtOH, 50% PEG300, 6% DMA, 48 hrs at room temperature
  M4N solubility: 18270 µg/mL
44% EtOH, 50% PG, 6% DMA, 2 hrs at room temperature
  M4N solubility: 4800 µg/mL
44% EtOH, 50% PG, 6% DMA, 24 hrs at room temperature
  M4N solubility: 5480 µg/mL
44% EtOH, 50% PG, 6% DMA, 48 hrs at room temperature
  M4N solubility: 2930 µg/mL
44% EtOH, 50% T80, 6% DMA, 2 hrs at room temperature
  M4N solubility: 17720 µg/mL
44% EtOH, 50% T80, 6% DMA, 24 hrs at room temperature
  M4N solubility: 22410 µg/mL
44% EtOH, 50% T80, 6% DMA, 48 hrs at room temperature
  M4N solubility: 23000 µg/mL
48% EtOH, 50% Crem, 2% Benz, 2 hrs at room temperature
  M4N solubility: 14020 µg/mL
48% EtOH, 50% Crem, 2% Benz, 24 hrs at room temperature
  M4N solubility: 18170 µg/mL
48% EtOH, 50% Crem, 2% Benz, 48 hrs at room temperature
  M4N solubility: 18510 µg/mL
48% EtOH, 50% Glycerol, 2% Benz, 2 hrs at room temperature
  M4N solubility: 1250 µg/mL
48% EtOH, 50% Glycerol, 2% Benz, 24 hrs at room temperature
  M4N solubility: 1660 µg/mL
48% EtOH, 50% Glycerol, 2% Benz, 48 hrs at room temperature
  M4N solubility: 1730 µg/mL
48% EtOH, 50% PEG300, 2% Benz, 2 hrs at room temperature
  M4N solubility: 14510 µg/mL
48% EtOH, 50% PEG300, 2% Benz, 24 hrs at room temperature
  M4N solubility: 15780 µg/mL
48% EtOH, 50% PEG300, 2% Benz, 48 hrs at room temperature
  M4N solubility: 16490 µg/mL
48% EtOH, 50% PG, 2% Benz, 2 hrs at room temperature
  M4N solubility: 4420 µg/mL
48% EtOH, 50% PG, 2% Benz, 24 hrs at room temperature
  M4N solubility: 4790 µg/mL
48% EtOH, 50% PG, 2% Benz, 48 hrs at room temperature
  M4N solubility: 4920 µg/mL
48% EtOH, 50% T80, 2% Benz, 2 hrs at room temperature
  M4N solubility: 16170 µg/mL
48% EtOH, 50% T80, 2% Benz, 24 hrs at room temperature
  M4N solubility: 19550 µg/mL
48% EtOH, 50% T80, 2% Benz, 48 hrs at room temperature
  M4N solubility: 19960 µg/mL
50% EtOH, 50% Crem, 2 hrs at room temperature
  M4N solubility: 13950 µg/mL
50% EtOH, 50% Crem, 24 hrs at room temperature
  M4N solubility: 17580 µg/mL
50% EtOH, 50% Crem, 48 hrs at room temperature
  M4N solubility: 18490 µg/mL
50% EtOH, 50% Glycerol, 2 hrs at room temperature
  M4N solubility: 1140 µg/mL
50% EtOH, 50% Glycerol, 24 hrs at room temperature
  M4N solubility: 1530 µg/mL
50% EtOH, 50% Glycerol, 48 hrs at room temperature
  M4N solubility: 1600 µg/mL
50% EtOH, 50% PEG300, 24 hrs at room temperature
  M4N solubility: 15070 µg/mL
50% EtOH, 50% PEG300, 48 hrs at room temperature
  M4N solubility: 16610 µg/mL
50% EtOH, 50% PG, 2 hrs at room temperature
  M4N solubility: 3640 µg/mL
50% EtOH, 50% PG, 24 hrs at room temperature
  M4N solubility: 4150 µg/mL
50% EtOH, 50% PG, 48 hrs at room temperature
  M4N solubility: 4430 µg/mL
50% EtOH, 50% T80, 2 hrs at room temperature
  M4N solubility: 15910 µg/mL
50% EtOH, 50% T80, 24 hrs at room temperature
  M4N solubility: 19280 µg/mL
50% PG, 50% Crem, 2 hrs at room temperature
  M4N solubility: 2940 µg/mL
50% PG, 50% Crem, 24 hrs at room temperature
  M4N solubility: 6330 µg/mL
50% PG, 50% Crem, 48 hrs at room temperature
  M4N solubility: 7200 µg/mL
50% PG, 50% Glycerol, 2 hrs at room temperature
  M4N solubility: 130 µg/mL
50% PG, 50% Glycerol, 24 hrs at room temperature
  M4N solubility: 480 µg/mL
50% PG, 50% Glycerol, 48 hrs at room temperature
  M4N solubility: 510 µg/mL
50% PG, 50% PEG300, 2 hrs at room temperature
  M4N solubility: 2650 µg/mL
50% PG, 50% PEG300, 24 hrs at room temperature
  M4N solubility: 4880 µg/mL
50% PG, 50% PEG300, 48 hrs at room temperature
  M4N solubility: 5300 µg/mL
50% PG, 50% T80, 2 hrs at room temperature
  M4N solubility: 5070 µg/mL
50% PG, 50% T80, 24 hrs at room temperature
  M4N solubility: 8160 µg/mL
50% PG, 50% T80, 48 hrs at room temperature
  M4N solubility: 8410 µg/mL
100% Crem, 2 hrs at room temperature
  M4N solubility: 1190 µg/mL
100% Crem, 24 hrs at room temperature
  M4N solubility: 7510 µg/mL
100% Crem, 48 hrs at room temperature
  M4N solubility: 12480 µg/mL
100% EtOH, 2 hrs at room temperature
  M4N solubility: 7200 µg/mL
100% EtOH, 24 hrs at room temperature
  M4N solubility: 7220 µg/mL
100% EtOH, 48 hrs at room temperature
  M4N solubility: 7910 µg/mL
100% Glycerol, 2 hrs at room temperature
  M4N solubility: XXX (not detectable)
100% Glycerol, 24 hrs at room temperature
  M4N solubility: 80 µg/mL
100% Glycerol, 48 hrs at room temperature
  M4N solubility: XXX (not detectable)
glycerol, 2 and 48 hours
  M4N solubility: not detectable
